Ten compounds from ChEMBL document CHEMBL1201862, “PubChem BioAssay data set” (2004) can be followed below.

Molecules are shown by their SMILES.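 Test compounds were applied to cells in 96-well plates for 48 hours at 5 doses. At the GI50, growth is halved.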 Calls of active or inactive are those of the source. Cut-off read from the data, not from the text of the source: active = GI50 up to about 1.1 µM and inactive = higher.

Test systems include NCI-H522; CAKI-1; HCT-116; IGROV-1; UACC-62; SK-MEL-5; SF-295; RXF 393; OVCAR-8; CCRF-CEM; HCT-15; SF-268; SK-MEL-2; SW-620; DU-145; EKVX; HT-29; SF-539; HL-60; BT-549.
Assay in all cases: NCI tumour cell line growth inhibition, 48 h

Turning to `CC(C)SC(=S)Sc1c(Cl)c(Cl)nc(Cl)c1Cl`, the GI50 was 4.9 µM (inactive) in the experiment with NCI-H522; 2.84 µM (inactive) in the experiment with CAKI-1; 10.5 µM (inactive) with HCT-116; 7.33 µM (inactive) in the experiment with IGROV-1; 9.35 µM (inactive) in the experiment with UACC-62; 14.8 µM (inactive) in the experiment on SK-MEL-5. The GI50 is 16.3 µM (inactive) in the experiment with SF-295; 4.57 µM (inactive) in the experiment with RXF 393; 3.46 µM (inactive) in the experiment with OVCAR-8; 1.91 µM (inactive) in the experiment on CCRF-CEM; 2.97 µM with HCT-15; 16.9 µM (inactive) in the experiment on SF-268. Besides, the GI50 with SK-MEL-2 was 7.82 µM (inactive); in the experiment with SW-620, 2.88 µM (inactive); in the experiment on DU-145 it was 3.94 µM (inactive); with EKVX it was 8.22 µM (inactive); in the experiment on HT-29, 3.4 µM (inactive); in the experiment on SF-539 it was 10.9 µM (inactive). The GI50 in the experiment on HL-60 was 2.44 µM (inactive); in the experiment with BT-549, 15.3 µM (inactive).
As for `O=P(NC12CC3CC(CC(C3)C1)C2)(N1CC1)N1CC1`, the GI50 is 25.7 µM (inactive) in the experiment on NCI-H522; 1.82 µM (inactive) with CAKI-1; 43.7 µM (inactive) in the experiment on HCT-116; > 92.9 µM (inactive) in the experiment on IGROV-1; 4.16 µM (inactive) in the experiment on UACC-62; 34.9 µM (inactive) in the experiment on SK-MEL-5. The GI50 in the experiment on SF-295 is 10 µM (inactive); with RXF 393 it was 15.4 µM (inactive); with OVCAR-8 it was 43 µM (inactive); in the experiment on CCRF-CEM, 7.24 µM (inactive); with HCT-15, more than 68.5 µM; in the experiment with SF-268, 12.3 µM (inactive). Also, the GI50 in the experiment on SK-MEL-2 is > 100 µM (inactive); with SW-620, > 86.5 µM (inactive); in the experiment on DU-145, 6.31 µM (inactive); with EKVX, > 100 µM (inactive); in the experiment with HT-29, 21.2 µM (inactive); with SF-539, 15.9 µM (inactive). For the same compound, the results for the GI50 in the experiment with HL-60 and in the experiment with BT-549 were 3.09 µM (inactive) and > 100 µM (inactive), respectively.
`Cc1nc(-n2nc(-c3ccccc3)cc2-c2ccccc2)sc1C(=O)/C=C/c1ccc([N+](=O)[O-])cc1`: the GI50 with NCI-H522 is 16.5 µM (inactive); in the experiment with CAKI-1, 24.9 µM (inactive); in the experiment on HCT-116 it was 12.7 µM (inactive); in the experiment on IGROV-1 it was 20.5 µM (inactive); in the experiment on UACC-62, 19.4 µM (inactive); in the experiment on SK-MEL-5, 16.6 µM (inactive). In addition, the GI50 in the experiment with SF-295 was > 46.6 µM (inactive); with RXF 393 it was 16.7 µM (inactive); in the experiment with OVCAR-8, 17.7 µM (inactive); in the experiment with CCRF-CEM, 14 µM (inactive); with HCT-15 it was 14 µM; with SF-268 it was 16.7 µM (inactive). Besides, the GI50 is 43.1 µM (inactive) in the experiment on SK-MEL-2; 21.4 µM (inactive) in the experiment on SW-620; 21.8 µM (inactive) with DU-145; > 43 µM (inactive) with EKVX; 16.3 µM (inactive) with HT-29; 11.2 µM (inactive) with SF-539. The GI50 is 17.2 µM (inactive) in the experiment on HL-60 and 13.2 µM (inactive) with BT-549.
As for `Cc1nn(C(=O)c2ccccc2O)c2c1C(c1ccc(O)cc1)SC(=N)N2` (stereo not given), the GI50 with NCI-H522 is > 3.29 µM (inactive); in the experiment on CAKI-1, > 2.32 µM (inactive); in the experiment on HCT-116, 1.49 µM (inactive); in the experiment with IGROV-1 it was 2.08 µM (inactive); in the experiment with UACC-62, 0.929 µM (active); with SK-MEL-5, > 3.08 µM (inactive). The GI50 is 1.26 µM (inactive) with SF-295; 1.23 µM (inactive) in the experiment with RXF 393; > 2.47 µM (inactive) in the experiment with OVCAR-8; 1.7 µM (inactive) with CCRF-CEM; 1.75 µM in the experiment with HCT-15; 3.45 µM (inactive) in the experiment on SF-268. Besides, the GI50 in the experiment with SK-MEL-2 was > 2.65 µM (inactive); in the experiment on SW-620 it was > 6.64 µM (inactive); with DU-145, 1.67 µM (inactive); with EKVX it was > 4 µM (inactive); with HT-29, > 6.9 µM (inactive); in the experiment with SF-539, 1.36 µM (inactive). In addition, the GI50 in the experiment on HL-60 is > 2.03 µM (inactive); with BT-549 it was > 10 µM (inactive).
On to `Cc1c(-c2ccccc2)c(C#N)c2nnn(-c3ccc([N+](=O)[O-])cc3)c(=O)n12`, for which the GI50 is 10.2 µM (inactive) in the experiment on NCI-H522; 29.9 µM (inactive) with CAKI-1; 24.5 µM (inactive) in the experiment with HCT-116; 10.2 µM (inactive) in the experiment with IGROV-1; 37.1 µM (inactive) with UACC-62; 33 µM (inactive) with SK-MEL-5. The GI50 in the experiment with SF-295 was 18.7 µM (inactive); in the experiment on RXF 393, 17.4 µM (inactive); in the experiment on OVCAR-8, 10.9 µM (inactive); in the experiment with CCRF-CEM, 8.43 µM (inactive); in the experiment on HCT-15 it was 20.7 µM; in the experiment on SF-268, 12.7 µM (inactive). In addition, the GI50 with SK-MEL-2 is 8.91 µM (inactive); in the experiment with SW-620 it was 7.78 µM (inactive); in the experiment on DU-145 it was 5.38 µM (inactive); in the experiment on EKVX, 6.32 µM (inactive); in the experiment with HT-29 it was 8.99 µM (inactive); in the experiment with SF-539, 10.1 µM (inactive). Besides, the GI50 was 1.92 µM (inactive) with HL-60 and 26.9 µM (inactive) with BT-549.
With `OCCn1cnc2c(SCc3ccccc3)ncnc21`, the GI50 in the experiment with NCI-H522 was 97.9 µM (inactive); in the experiment with CAKI-1, > 100 µM (inactive); in the experiment on HCT-116, 48.8 µM (inactive); with IGROV-1, > 100 µM (inactive); in the experiment with UACC-62, > 100 µM (inactive); in the experiment on SK-MEL-5 it was > 100 µM (inactive). Further, the GI50 in the experiment on SF-295 is > 100 µM (inactive); with RXF 393, > 100 µM (inactive); in the experiment on OVCAR-8 it was > 100 µM (inactive); in the experiment with CCRF-CEM it was 39.1 µM (inactive); with HCT-15 it was 11.9 µM; in the experiment on SF-268, 71.8 µM (inactive). Moreover, the GI50 is > 100 µM (inactive) in the experiment on SK-MEL-2; > 100 µM (inactive) in the experiment with SW-620; > 100 µM (inactive) with DU-145; > 100 µM (inactive) with EKVX; > 100 µM (inactive) in the experiment on HT-29; 87.5 µM (inactive) in the experiment on SF-539. Further, the GI50 was 68.1 µM (inactive) in the experiment on HL-60 and 95.7 µM (inactive) in the experiment on BT-549.
With `CC(C)(C)NNc1c([N+](=O)[O-])cnn(-c2ccccc2)c1=O`, the GI50 is 1.77 µM (inactive) with NCI-H522; 8.69 µM (inactive) in the experiment with CAKI-1; 2.46 µM (inactive) with HCT-116; 20.4 µM (inactive) with IGROV-1; 3.5 µM (inactive) in the experiment with UACC-62; 4.51 µM (inactive) in the experiment on SK-MEL-5. In addition, the GI50 in the experiment with SF-295 was 6.28 µM (inactive); in the experiment on RXF 393, 8.32 µM (inactive); in the experiment with OVCAR-8 it was 2.26 µM (inactive); in the experiment on CCRF-CEM it was 0.944 µM (active); in the experiment with HCT-15, 3.95 µM; with SF-268, 9.82 µM (inactive). For the same compound, the GI50 in the experiment on SK-MEL-2 is > 10 µM (inactive); in the experiment with SW-620 it was 1.76 µM (inactive); in the experiment on DU-145, 12.8 µM (inactive); in the experiment with EKVX it was 9.14 µM (inactive); in the experiment on HT-29, 2.84 µM (inactive); with SF-539, 13.2 µM (inactive). In addition, the GI50 is 1.34 µM (inactive) in the experiment with HL-60 and 1.41 µM (inactive) with BT-549.
On to `Cc1ccc(C2CC(=O)CC(c3ccc(C)cc3)C23C(=O)NC(=O)NC3=O)cc1` (stereo not given), for which the GI50 in the experiment with NCI-H522, with CAKI-1, in the experiment with HCT-116, with IGROV-1, in the experiment on UACC-62 and in the experiment on SK-MEL-5 was > 100 µM (inactive) throughout. Moreover, the GI50 in the experiment with SF-295 is > 100 µM (inactive); in the experiment with RXF 393, > 100 µM (inactive); in the experiment on OVCAR-8, > 100 µM (inactive); in the experiment on CCRF-CEM, > 100 µM (inactive); with HCT-15, more than 100 µM; in the experiment with SF-268 it was > 100 µM (inactive). Also, the GI50 in the experiment on SK-MEL-2, in the experiment with SW-620, in the experiment with DU-145, with EKVX, with HT-29 and in the experiment with SF-539 was > 100 µM (inactive) each time. In addition, the results for the GI50 in the experiment with HL-60 and in the experiment with BT-549 were > 10 µM (inactive) and > 100 µM (inactive), respectively.
As to `COc1cc(OC)c(C2(c3c(OC(C)C)c(=O)c3=O)SCCCS2)cc1OC`, the GI50 in the experiment with NCI-H522, in the experiment with CAKI-1, with HCT-116, in the experiment with IGROV-1, with UACC-62 and in the experiment on SK-MEL-5 was > 100 µM (inactive) each time. The GI50 in the experiment with SF-295 was > 100 µM (inactive); with RXF 393 it was > 100 µM (inactive); in the experiment with OVCAR-8, > 100 µM (inactive); in the experiment with CCRF-CEM it was > 100 µM (inactive); with HCT-15, more than 100 µM; in the experiment on SF-268, > 100 µM (inactive). Also, the GI50 with SK-MEL-2, in the experiment with SW-620, in the experiment on DU-145, in the experiment with EKVX, in the experiment with HT-29 and with SF-539 was > 100 µM (inactive) in each case. The GI50 with HL-60 and in the experiment with BT-549 was > 100 µM (inactive) throughout.
Take `CC(C)(C)OC(=O)[C@@H]1CCC(=O)N1C1(c2ccccc2)c2ccccc2-c2ccccc21`: the GI50 with NCI-H522 is 26.9 µM (inactive); in the experiment with CAKI-1 it was 88.5 µM (inactive); with HCT-116, 37.8 µM (inactive); with IGROV-1, 56.4 µM (inactive); with UACC-62 it was 33.6 µM (inactive); in the experiment on SK-MEL-5, 23.9 µM (inactive). The GI50 is 19.1 µM (inactive) in the experiment with SF-295; 9.77 µM (inactive) with RXF 393; 88.1 µM (inactive) in the experiment with OVCAR-8; 23.8 µM (inactive) in the experiment with CCRF-CEM; 55.5 µM with HCT-15; > 100 µM (inactive) with SF-268. For the same compound, the GI50 was 26.2 µM (inactive) in the experiment on SK-MEL-2; 30.5 µM (inactive) in the experiment on SW-620; 97.1 µM (inactive) in the experiment on DU-145; 82.8 µM (inactive) in the experiment with EKVX; 23.7 µM (inactive) in the experiment on HT-29; 17.1 µM (inactive) with SF-539. Moreover, the GI50 is 37.2 µM (inactive) in the experiment with HL-60 and > 100 µM (inactive) in the experiment with BT-549.
